Laboratory results from ChEMBL document CHEMBL5512605, “Targeted regulated cell death with small molecule compounds in colorectal cancer: Current perspectives of targeted therapy and molecular mechanisms” (Eur J Med Chem, 2024).

Legend:
SW480 [1] = assay: Cytotoxicity against human SW480 cells assessed as inhibition of cell viability by MTT assay; format: functional
HT-29 [2] = assay: Cytotoxicity against human HT-29 cells assessed as inhibition of cell viability by MTT assay; format: functional
SW-620 [3] = assay: Antiproliferative activity against human SW620 cells incubated for 48 hrs by CCK-8 method; format: functional, cell-based; details: SW-620, 48 h
HT-29 [4] = assay: Antiproliferative activity against human HT-29 cells incubated for 48 hrs by CCK-8 method; format: functional, cell-based; details: HT-29, 48 h
HCT-116 [5] = assay: Antiproliferative activity against human HCT-116 cells incubated for 72 hrs by CCK-8 method; format: functional
P2X purinoceptor 7 = P2X purinoceptor 7 (Homo sapiens, UniProt Q99572); assay: Antagonist activity at P2X7R (unknown origin)
SW-620 [6] = assay: Antiproliferative activity against human SW620 cells incubated for 72 hrs by CCK-8 method; format: functional
LoVo [7] = assay: Antiproliferative activity against human LoVo cells assessed as inhibition of cell growth by CellTiter 96 Aqueous One Solution Cell Proliferation Assay; format: functional, cell-based
SW-620 [8] = assay: Antiproliferative activity against human SW620 cells assessed as inhibition of cell growth by CellTiter 96 Aqueous One Solution Cell Proliferation Assay; format: functional, cell-based
SW480 [9] = assay: Antiproliferative activity against human SW480 cells assessed as inhibition of cell growth by CellTiter 96 Aqueous One Solution Cell Proliferation Assay; format: functional, cell-based
[10] = molecular target: T1, Signal transducer and activator of transcription 3 (Homo sapiens, UniProt P40763); assay: Inhibition of STAT3 (unknown origin)
HCT-116 [11] = assay: Cytotoxicity against human HCT-116 cells measured after 72 hrs by WST-1 assay; format: functional, cell-based; details: HCT-116, 72 h
HT-29 [12] = assay: Cytotoxicity against human HT-29 cells assessed as reduction in cell viability by MTT assay; format: functional
RKO [13] = assay: Cytotoxicity against human RKO cells assessed as reduction in cell viability by MTT assay; format: functional
HCT-116 [14] = assay: Cytotoxicity against human HCT-116 cells assessed as reduction in cell viability by MTT assay; format: functional
SW480 [15] = assay: Cytotoxicity against human SW480 cells assessed as reduction in cell viability by MTT assay; format: functional
[16] = molecular target: T1, Signal transducer and activator of transcription 3; assay: Binding affinity to GFP tagged STAT3 (unknown origin) assessed as dissociation constant by microscale thermophoresis analysis
Phospholipase D1 = Phospholipase D1 (Homo sapiens, UniProt Q13393); assay: Inhibition of PLD1 (unknown origin)
Phospholipase D2 = Phospholipase D2 (Homo sapiens, UniProt O14939); assay: Inhibition of PLD2 (unknown origin)
DLD-1 [17] = assay: Cytotoxicity against human DLD-1 cells; format: functional
HCT-116 [18] = assay: Cytotoxicity against human HCT-116 cells assessed as inhibition of cell proliferation measured after 24 hrs by MTT assay; format: functional, cell-based; details: HCT-116, 24 h
[19] = molecular target: T1, Signal transducer and activator of transcription 3; assay: Binding affinity to N-terminal his tagged recombinant human STAT3 expressed in insect cells assessed as dissociation constant by biolayer interferometry assay; parameters: species or system Insect cell
RKO [20] = assay: Cytotoxicity against human RKO cells assessed as inhibition of cell proliferation measured after 24 hrs by MTT assay; format: functional, cell-based
RKO [21] = assay: Antiproliferative activity against human RKO cells assessed as inhibition of cell growth; format: functional, cell-based
HCT-116 [22] = assay: Antiproliferative activity against human HCT-116 cells assessed as inhibition of cell viability by CellTiter-Glo Luminescent Assay; format: functional
LoVo [23] = assay: Antiproliferative activity against human LoVo cells assessed as inhibition of cell viability by CellTiter-Glo Luminescent Assay; format: functional
DLD-1 [24] = assay: Antiproliferative activity against human DLD-1 cells assessed as inhibition of cell viability by CellTiter-Glo Luminescent Assay; format: functional
SW-620 [25] = assay: Antiproliferative activity against human SW-620 cells assessed as inhibition of cell viability by CellTiter-Glo Luminescent Assay; format: functional
HT-29 [26] = assay: Antiproliferative activity against human HT-29 cells assessed as inhibition of cell viability by CellTiter-Glo Luminescent Assay; format: functional
SW480 [27] = assay: Antiproliferative activity against human SW480 cells assessed as reduction in cell viability; format: functional
SW-620 [28] = assay: Antiproliferative activity against human SW620 cells assessed as reduction in cell viability; format: functional
RKO [29] = assay: Antiproliferative activity against human RKO cells assessed as inhibition of cell viability measured upto 96 hrs by CCK-8 method; format: functional
SW48 = assay: Cytotoxicity against human SW48 cells measured after 72 hrs; format: functional, cell-based; details: SW48, 72 h
HCT-116 [30] = assay: Cytotoxicity against p53 null human HCT-116 cells measured after 72 hrs; format: functional, cell-based; details: HCT-116, 72 h
HCT-116 [31] = assay: Cytotoxicity against human HCT-116 cells measured after 72 hrs; format: functional, cell-based; details: HCT-116, 72 h
RKO [32] = assay: Cytotoxicity against human RKO cells measured after 72 hrs; format: functional, cell-based
HT-29 [33] = assay: Cytotoxicity against human HT-29 cells measured after 72 hrs; format: functional, cell-based; details: HT-29, 72 h
HCT-116 [34] = assay: Antiproliferative activity against human HCT-116 cells assessed as inhibition of cell growth incubated for 24 hrs by cell-titer glo assay; format: functional
HT-29 [35] = assay: Antiproliferative activity against human HT-29 cells assessed as inhibition of cell growth incubated for 24 hrs by cell-titer glo assay; format: functional
MC-38 = assay: Antiproliferative activity against mouse MC38 cells assessed as inhibition of cell growth incubated for 24 hrs by cell-titer glo assay; format: functional
HCT-116 [36] = assay: Cytotoxicity against human HCT-116 cells; format: functional, cell-based
HT-29 [37] = assay: Antiproliferative activity against human HT-29 cells; format: functional
SW-620 [38] = assay: Cytotoxicity against human SW620 cells; format: functional, cell-based
HCT-116 [39] = assay: Antiproliferative activity against human HCT-116 cells by CCK-8 method; format: functional
RKO [40] = assay: Antiproliferative activity against human RKO cells by CCK-8 method; format: functional
HCT-15 = assay: Antiproliferative activity against human HCT-15 cells by CCK-8 method; format: functional
[41] = Inhibition of NEMO/IKKbeta (unknown origin); parameters: species or system Homo sapiens
SW-620 [42] = assay: Antiproliferative activity against human SW620 cells by CCK-8 method; format: functional
LoVo [43] = assay: Antiproliferative activity against human LoVo cells by CCK-8 method; format: functional
HCT-116 [44] = assay: Antiproliferative activity against human HCT-116 cells assessed as reduction in cell viability measured after 24 hrs by CCK-8 method; format: functional, cell-based; details: HCT-116, 24 h
SW-620 [45] = assay: Antiproliferative activity against human SW620 cells assessed as reduction in cell viability measured after 24 hrs by CCK-8 method; format: functional, cell-based; details: SW-620, 24 h
HCT-116 [46] = assay: Cytotoxicity against human HCT-116 cells incubated for 24 hrs by MTT assay; format: functional, cell-based; details: HCT-116, 24 h
HCT-116 [47] = assay: Antiproliferative activity in human HCT-116 cells measured after 12 to 24 hrs by MTT assay; format: functional, cell-based
SW-620 [48] = assay: Antiproliferative activity in human SW620 cells measured after 12 to 24 hrs by MTT assay; format: functional, cell-based
HT-29 [49] = assay: Cytotoxicity against human HT-29 cells incubated for 24 hrs by MTT assay; format: functional, cell-based; details: HT-29, 24 h

T1 sequence (P40763 whole entry): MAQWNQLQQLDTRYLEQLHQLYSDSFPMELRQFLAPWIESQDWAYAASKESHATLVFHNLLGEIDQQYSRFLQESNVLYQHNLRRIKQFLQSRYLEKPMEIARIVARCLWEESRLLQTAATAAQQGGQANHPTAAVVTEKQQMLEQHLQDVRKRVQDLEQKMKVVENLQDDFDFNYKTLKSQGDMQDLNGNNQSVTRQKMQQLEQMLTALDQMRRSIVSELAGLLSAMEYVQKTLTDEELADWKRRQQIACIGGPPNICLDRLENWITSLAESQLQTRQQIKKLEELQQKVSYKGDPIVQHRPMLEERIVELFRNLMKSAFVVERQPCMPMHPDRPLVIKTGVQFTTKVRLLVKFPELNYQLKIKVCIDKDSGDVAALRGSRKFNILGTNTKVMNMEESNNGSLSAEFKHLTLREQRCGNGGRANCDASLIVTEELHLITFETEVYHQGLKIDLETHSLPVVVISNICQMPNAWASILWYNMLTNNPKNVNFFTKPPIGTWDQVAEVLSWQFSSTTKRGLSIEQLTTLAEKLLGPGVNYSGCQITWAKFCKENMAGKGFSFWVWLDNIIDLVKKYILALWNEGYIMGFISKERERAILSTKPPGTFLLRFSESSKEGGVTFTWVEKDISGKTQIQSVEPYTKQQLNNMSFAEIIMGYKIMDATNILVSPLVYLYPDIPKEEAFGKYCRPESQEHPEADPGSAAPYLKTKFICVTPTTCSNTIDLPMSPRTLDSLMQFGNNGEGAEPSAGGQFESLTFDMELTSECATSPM
Chain of P2X purinoceptor 7 (Q99572 whole entry): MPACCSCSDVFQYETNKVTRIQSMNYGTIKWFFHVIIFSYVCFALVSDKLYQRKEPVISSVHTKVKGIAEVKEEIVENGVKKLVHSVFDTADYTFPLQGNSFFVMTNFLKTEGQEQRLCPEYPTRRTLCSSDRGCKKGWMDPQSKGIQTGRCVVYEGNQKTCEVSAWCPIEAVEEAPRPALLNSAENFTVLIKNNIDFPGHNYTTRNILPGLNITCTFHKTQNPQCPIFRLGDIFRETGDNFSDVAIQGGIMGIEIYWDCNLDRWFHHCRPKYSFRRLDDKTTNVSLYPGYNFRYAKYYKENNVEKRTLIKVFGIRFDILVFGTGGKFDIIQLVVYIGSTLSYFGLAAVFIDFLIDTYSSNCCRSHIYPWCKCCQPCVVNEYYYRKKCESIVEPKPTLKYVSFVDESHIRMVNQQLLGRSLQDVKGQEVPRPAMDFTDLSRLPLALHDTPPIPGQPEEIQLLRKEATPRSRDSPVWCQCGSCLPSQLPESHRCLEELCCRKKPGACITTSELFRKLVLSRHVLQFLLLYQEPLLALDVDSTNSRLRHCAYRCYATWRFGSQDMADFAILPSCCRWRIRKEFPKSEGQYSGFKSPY
Chain of Phospholipase D1 (Q13393 whole entry): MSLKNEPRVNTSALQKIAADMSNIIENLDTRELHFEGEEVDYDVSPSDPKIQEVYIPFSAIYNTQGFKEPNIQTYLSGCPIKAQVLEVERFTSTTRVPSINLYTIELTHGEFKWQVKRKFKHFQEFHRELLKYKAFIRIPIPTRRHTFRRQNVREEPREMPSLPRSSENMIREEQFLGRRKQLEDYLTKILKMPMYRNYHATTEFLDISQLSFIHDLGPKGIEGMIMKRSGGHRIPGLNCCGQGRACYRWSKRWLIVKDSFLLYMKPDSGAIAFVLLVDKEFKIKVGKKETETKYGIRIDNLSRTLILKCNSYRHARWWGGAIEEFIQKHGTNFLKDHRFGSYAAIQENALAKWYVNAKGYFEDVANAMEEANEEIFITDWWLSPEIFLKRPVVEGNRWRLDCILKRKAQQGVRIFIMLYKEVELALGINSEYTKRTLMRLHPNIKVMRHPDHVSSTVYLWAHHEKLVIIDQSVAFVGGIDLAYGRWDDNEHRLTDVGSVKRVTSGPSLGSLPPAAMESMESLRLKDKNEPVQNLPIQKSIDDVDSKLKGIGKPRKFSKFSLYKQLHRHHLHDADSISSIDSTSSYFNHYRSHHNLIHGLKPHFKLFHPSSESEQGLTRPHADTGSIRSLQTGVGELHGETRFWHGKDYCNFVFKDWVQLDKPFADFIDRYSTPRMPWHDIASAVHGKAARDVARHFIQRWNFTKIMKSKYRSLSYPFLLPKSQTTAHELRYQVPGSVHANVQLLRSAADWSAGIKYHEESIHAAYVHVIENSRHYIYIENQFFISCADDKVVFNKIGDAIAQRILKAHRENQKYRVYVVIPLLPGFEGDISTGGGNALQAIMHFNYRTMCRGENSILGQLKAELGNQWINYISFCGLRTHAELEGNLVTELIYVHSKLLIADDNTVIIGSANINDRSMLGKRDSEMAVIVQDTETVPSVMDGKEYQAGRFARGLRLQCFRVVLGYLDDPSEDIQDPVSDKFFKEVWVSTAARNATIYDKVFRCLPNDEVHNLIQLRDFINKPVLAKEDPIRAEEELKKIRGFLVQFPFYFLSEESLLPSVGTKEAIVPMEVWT
Chain of Phospholipase D2 (O14939 whole entry): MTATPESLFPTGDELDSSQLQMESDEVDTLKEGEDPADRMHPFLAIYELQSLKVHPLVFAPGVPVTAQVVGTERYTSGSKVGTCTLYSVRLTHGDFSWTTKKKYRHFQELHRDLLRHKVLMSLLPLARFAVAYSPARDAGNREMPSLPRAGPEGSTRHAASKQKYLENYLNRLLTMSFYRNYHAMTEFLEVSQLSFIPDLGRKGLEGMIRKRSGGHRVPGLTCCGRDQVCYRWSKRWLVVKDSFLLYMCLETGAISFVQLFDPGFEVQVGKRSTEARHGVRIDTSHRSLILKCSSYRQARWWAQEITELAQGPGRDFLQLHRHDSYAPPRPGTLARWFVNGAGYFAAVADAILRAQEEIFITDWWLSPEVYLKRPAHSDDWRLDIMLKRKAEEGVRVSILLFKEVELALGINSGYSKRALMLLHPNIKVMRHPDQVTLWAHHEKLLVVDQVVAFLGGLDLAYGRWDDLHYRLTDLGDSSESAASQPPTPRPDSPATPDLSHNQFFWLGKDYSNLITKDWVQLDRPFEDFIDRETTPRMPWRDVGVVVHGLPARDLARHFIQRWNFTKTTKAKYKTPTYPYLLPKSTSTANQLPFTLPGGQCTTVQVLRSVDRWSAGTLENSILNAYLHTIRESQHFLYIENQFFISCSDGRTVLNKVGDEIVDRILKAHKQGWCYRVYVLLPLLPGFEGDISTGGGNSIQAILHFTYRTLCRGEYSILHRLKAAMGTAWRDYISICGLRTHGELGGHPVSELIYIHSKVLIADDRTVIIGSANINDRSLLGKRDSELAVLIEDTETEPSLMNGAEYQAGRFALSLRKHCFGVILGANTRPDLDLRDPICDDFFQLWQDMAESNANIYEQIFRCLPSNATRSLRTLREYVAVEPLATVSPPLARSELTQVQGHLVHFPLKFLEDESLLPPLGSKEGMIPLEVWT

CC[C@@]1(O)C(=O)OCc2c1cc1n(c2=O)Cc2cc3cc4c(cc3nc2-1)OCO4
IC (SW480 [1]): 0 nM | IC (HT-29 [2]): 0 nM

CC(C)c1onc(-c2c(Cl)cccc2Cl)c1COc1ccc(/C=C/c2cccc(C(=O)O)c2)c(Cl)c1
IC50 (SW-620 [3]): 7.6 µM | IC50 (HT-29 [4]): 13.8 µM

Clc1cccc(-c2nnnn2Cc2cccnc2)c1Cl
IC (HCT-116 [5]): 10 µM | IC50 (P2X purinoceptor 7): 0.13 µM | IC (SW-620 [6]): 10 µM

CC(C)=CCc1cc(-c2coc3cc(O)c(CC=C(C)C)c(O)c3c2=O)cc(O)c1O
IC50 (LoVo [7]): 7.05 µM | IC50 (SW-620 [8]): 7.33 µM | IC50 (SW480 [9]): 6.97 µM

COC(=O)[C@@]12OC[C@]34[C@H]([C@@H](O)[C@@H]1O)[C@@]1(C)CC(=O)C(O)=C(C)[C@@H]1C[C@H]3OC(=O)[C@H](OC(=O)/C=C(\C)C(C)(C)OC(C)=O)[C@@H]24
IC50 [10]: 2.4 pM | IC50 (HCT-116 [11]): 18.7 µM

O=C1C(Nc2ccccc2N2CCNCC2)=CC2=NS(=O)(=O)c3cccc1c32
IC (HT-29 [12]): 3 µM | IC (RKO [13]): 3 µM | IC (HCT-116 [14]): 3 µM | IC (SW480 [15]): 3 µM | Kd [16]: 3.3 µM

CC(=O)c1ccc2[nH]c(C(=O)Nc3cc(C(F)(F)F)cc(C(F)(F)F)c3)cc2c1
IC50 (Phospholipase D1): 0.325 µM | IC50 (Phospholipase D2): 0.0151 µM | IC (DLD-1 [17]): 1 µM

Cc1ccc(COc2ccc3c(c2)C(=O)C(=O)C2=C3OC(C)C2)cc1 (stereo not given)
IC50 (HCT-116 [18]): 4.07 µM | Kd [19]: 6.6 µM | IC50 (RKO [20]): 3.78 µM

COc1cc(-c2[o+]c3cc(O)cc(O[C@@H]4O[C@H](CO)[C@@H](O)[C@H](O)[C@H]4O)c3cc2O[C@@H]2O[C@H](CO[C@@H]3O[C@@H](C)[C@H](OC(=O)/C=C/c4ccc(O)cc4)C[C@H]3O)[C@@H](O)[C@H](O)[C@H]2O)cc(O)c1O
IC50 (RKO [21]): 172 µM

C[C@@H]1CN(CC(=O)N2CC(C)(C)c3nc(CO)c(Cc4ccc(F)cc4)cc32)[C@@H](CN2CCOC[C@H]2C)CN1 [ASTX-660]
IC (HCT-116 [22]): 0.5 nM | IC (LoVo [23]): 0.5 nM | IC (DLD-1 [24]): 0.5 nM | IC (SW-620 [25]): 0.5 nM | IC (HT-29 [26]): 0.5 nM

C[C@H]1O[C@@H](O[C@H]2[C@@H](O)C[C@H](O[C@H]3[C@@H](O)C[C@H](O[C@H]4CC[C@@]5(C)[C@H](CC[C@@H]6[C@@H]5CC[C@]5(C)[C@@H](C7=CC(=O)OC7)CC[C@]65O)C4)O[C@@H]3C)O[C@@H]2C)C[C@H](O)[C@@H]1O [DIGITOXIN]
IC (SW480 [27]): 200 nM | IC (SW-620 [28]): 200 nM

CCN(CC)C(=S)SSC(=S)N(CC)CC [DISULFIRAM]
IC (RKO [29]): 0.1 µM

O=C(O)CCCCC1CCSS1 (stereo not drawn) [LIPOIC ACID, ALPHA]
IC50 (SW48): 266 µM | IC50 (HCT-116 [30]): 890 µM | IC50 (HCT-116 [31]): 266 µM | IC50 (RKO [32]): 266 µM | IC50 (HT-29 [33]): 266 µM

O=C(NC1CCN(CCCCC2(C(=O)NCC(F)(F)F)c3ccccc3-c3ccccc32)CC1)c1ccccc1-c1ccc(C(F)(F)F)cc1 [LOMITAPIDE]
IC (HCT-116 [34]): 10 µM | IC (HT-29 [35]): 10 µM | IC (MC-38): 10 µM

CC(C)[C@@H]1C[C@@H](O)[C@H]2[C@@]1(C)CC[C@@]1(C)[C@H]3C(=CC[C@]21C)[C@@]1(C)CC[C@H](O)C(C)(C)[C@@H]1C[C@@H]3O [RUBIARBONOL B]
IC (HCT-116 [36]): 10 µM | IC (HT-29 [37]): 10 µM | IC (SW-620 [38]): 10 µM

CC(C)=CC[C@@H](O)C1=CC(=O)c2c(O)ccc(O)c2C1=O [SHIKONIN]
IC (HCT-116 [39]): 0.5 µM | IC (RKO [40]): 0.5 µM | IC (HCT-15): 0.5 µM | IC50 [41]: 0.17 µM | IC (SW-620 [42]): 0.5 µM | IC (LoVo [43]): 0.5 µM

CCC(C)/C=C(\C)[C@H]1C(C)=C[C@@]2(C)C[C@@H](C)CC[C@@H]2[C@H]1C(=O)C1=C/C(=C/c2ccc(O)cc2)NC1=O (stereo not given in full) [TALAROCONVOLUTIN A]
IC50 (HCT-116 [44]): 9.23 µM | IC50 (SW-620 [45]): 5.82 µM

C=C[C@@]12COC(=O)C(=C)[C@@H]1[C@H]1OC(=O)C(=C)[C@@H]1[C@@H](OC(=O)C(=C)CO)C2 [VERNODALIN]
IC50 (HCT-116 [46]): 3.17 µM | IC50 (HCT-116 [47]): 316 µM | IC50 (SW-620 [48]): 355 µM | IC50 (HT-29 [49]): 7.17 µM
